Experimental data published in US20240199604A1, “SUPRAMOLECULAR POLYMER THERAPEUTICS AND DIAGNOSTICS” (The Regents of the University of California, priority 2022, published 2024).

Tested on: not listed separately
Experiment: Parallel Artificial Membrane Permeability Assay (PAMPA)
Format: in vitro ADME
Conditions: 200 uM test compound, 4 hr
Description: Parallel Artificial Membrane Permeability Assay (PAMPA). 5 uL of 1% lecithin (VWR 0579) dissolved in n-dodecane (Sigma Aldrich D221104) was applied to each well of a MultiScreen IP PAMPA filter plate (Millipore MAIPSWU10) and allowed to equilibrate for 5 minutes. 300 uL of PBS was added to the acceptor plate and 150 uL of 200 uM test compound dissolved in PBS and 30% ethanol was added to the donor wells before incubating the donor plate in the acceptor plate for 4 hr at 500 rpm. 100 uL was sampled from the donor and acceptor wells and the concentrations were measured by liquid chromatography-mass spectrometry (SCIEX 4500) or UV-VIS plate reader (BMG).

Row | Structure (SMILES) | PAMPA: P_app pH 7.4 [×10e−6 cm/sec]
1 | CNC(=O)c1ncc2c(-c3ccc(F)cc3)nn(Cc3ccccc3)c2n1 [Compound 250] | >50
2 | CNC(=O)c1ncc2c(-c3cc(F)cc(F)c3)nn(Cc3ccccc3)c2n1 [Compound 252] | >50
3 | CC(=O)Nc1ncc2c(-c3ccccc3)nn(Cc3ccccn3)c2n1 [Compound 278] | >50
4 | CC(=O)Nc1ncc2c(-c3ccccc3)nn(CC3CCCCC3)c2n1 [Compound 280] | 19.5
5 | CC(=O)Nc1ncc2c(-c3ccccc3C)nn(Cc3ccccc3)c2n1 [Compound 266] | >50
6 | CCc1ccccc1-c1nn(-c2ccc(F)cc2)c2nc(C(=O)NC)ncc12 [Compound 245] | >50
7 | CCn1nc(-c2ccccc2)c2cnc(NC(C)=O)nc21 [Compound 277] | >50

Results, then the compound that gave them:

Row | PAMPA: P_app pH 7.4 [×10e−6 cm/sec] | Structure (SMILES)
8 | >50 | CNC(=O)c1ncc2c(-c3ccccc3)nn(-c3ccc(F)cc3)c2n1 [Compound 246]
9 | >50.0 | CNc1nc(=O)n(-c2nc(-c3cccc(Cl)c3)oc2-c2ccc(Cl)c(F)c2)cc1F [Compound 1]

Biological target: T1, YFP-tagged 0N4R-Tau P301S aggregates seeded with 416-AD11A lysate (Homo sapiens, UniProt P10636, P618S)
T1 construct: C-terminally YFP-tagged full length 0N4R-Tau; expressed in transfected cells
T1 sequence (P10636 1-383 isoform P10636-6 P243S): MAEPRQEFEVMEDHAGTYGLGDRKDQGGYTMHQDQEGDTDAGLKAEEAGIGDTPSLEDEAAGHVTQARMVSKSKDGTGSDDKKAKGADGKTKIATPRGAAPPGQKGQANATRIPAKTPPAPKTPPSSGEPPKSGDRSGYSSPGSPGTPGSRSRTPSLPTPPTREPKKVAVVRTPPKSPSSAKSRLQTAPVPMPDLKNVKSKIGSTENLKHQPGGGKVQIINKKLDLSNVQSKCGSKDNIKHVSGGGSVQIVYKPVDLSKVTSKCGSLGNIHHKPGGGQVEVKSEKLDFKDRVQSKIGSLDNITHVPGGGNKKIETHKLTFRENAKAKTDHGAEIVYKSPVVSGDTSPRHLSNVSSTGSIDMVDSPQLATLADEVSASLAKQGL
Experiment: Tau-AD high throughput screening (counter screen) in T24 cells
Format: cell-based
Conditions: T24 cells seeded with 416-AD11A lysate
Description: A fragment of the Middle Tempral Gyrus (MTG) from Alzheimer's Disease (AD) patient 2217 was resuspended in 9 volumes of PBS (ml/g of brain) and homogenized 3×12 seconds using a probe homogenizer (Thomas Scientific) with disposable Omni Tip plastic homogenizing probes (Thomas Scinetific Cat No 3409Y77) to generate a 10% brain homogenate (10% AD11-BH). The 10% AD11-BH was clarified of insoluble debris by centrifugation at 800×g for 5 minutes. The resulting supernatant was collected and the protein concentration of this clarified BH (AD11-CBH) was determined by bicinchoninic acid assay (BCA) (Thermo Fisher Cat No. 23227). HEK293 cells stably expressing a C-terminally Clover-tagged truncated 4R-Tau^243-382 transgene containing the P301L and V337M mutations and a C-terminally Ruby-tagged truncated 3R-Tau^243-382 transgene containing the L266V and V337M mutations (128/139 cells) were transfected with the AD11-CBH using lipofectamine 2000 (LF2K) (Thermo Fisher Cat No. 11668500). Briefly, 0.32 μl of LF2K were diluted in 5 μl Opti-MEM (Thermo Scientific Cat No 31985070) per well of a 384-well plate and incubated for 5 min at room temperature (RT). This mixture was added to 0.32 μg of AD11-CBH diluted in 5 μl of PBS per well of a 384-well plate and vortex briefly. The transfection mixture was incubated at room temperature for 90 min. The transfection complexes were subsequently added to a single well of a 384-well plate containing 3500 128/139 cells. After 3 days the cells were harvested, counted and plated at a density of 1 cell/well in a 96-well plate. A clonal cell line containing Clover and Ruby positive Tau aggregates was selected and termed 416-AD11A cells. Following the expansion of these 416-AD11A cells, a cell lysate was prepared by freeze/thaw. The cells from a confluent T175 flask were harvested in 1 ml of PBS containing 1× protease inhibitor cocktail by scraping. The cell suspension was subjected to 4 cycles of freezing in liquid nitrogen for 5 minutes followed by thawing at 37° C. for 5 minutes. The resulting cell lysate was centrifuged at 2000 RPM for 10 minutes to remove the cell debris and the protein concentration of the resulting 416-AD11A lysate was determined by BCA assay and aliquots frozen for future use.
HEK293 cells stably expressing C-terminally YFP-tagged full length 0N4R-Tau carrying a P301S mutation (T24 cells) are plated at a density of 4000 cells per well of a 384-well black walled, clear bottom plate (Greiner Cat No 5678-1091Q) in 60 μl of complete DMEM (DMEM (Corning Cat No 10-013-CV), 10% FBS (VWR Cat No 97068-085, 0.5% Penicilin/streptomycin (Gibco Cat No 15140-122)) containing 0.1 μg/ml Hoechst Dye (Thermo Scientific Cat No H3570). Transfection complexes are prepared by diluting 0.15 μg of 416-AD11A lysate or HEK lysate in 5 μl of PBS per well to be transfected and 0.15 μl of Lipofectamine 2000 (LF2K) (ThermoFisher Cat No 11668500) in 5 μl of Opti-MEM per well to be transfected in separate tubes. The pre-diluted 416-AD11A or HEK lysates and LF2K are subsequently mixed and allowed to incubate for 90 minutes at RT. A 10 μl aliquot of the 416-AD11A or HEK transfection complexes is added to the appropriate wells of the 384-well plate containing the T24 cells using the Bravo liquid handling platform (Agilent). Wells A23-P24 of the 384-well plate are transfected with HEK lysate to act as a reference point for spontaneous aggregation of 0N4R^P301S and for transfection related toxicity. The dilution of test compounds is performed using the Bravo liquid handling platform (Agilent). The control is DMSO in the absence of any test compound. Briefly, 1 μl of each test compound (5 mM stock) in the 384-well test plate was transferred to a 384-well plate (Greiner Cat No 781280) containing 61.5 μl of complete DMEM to generate a working stock of compounds at 80 μM. […]

Row | Structure (SMILES) | AD Tau Aggregates (% control)
10 | Cc1cc(-c2nc(-n3cc4ccn(C5CC5)c4nc3=O)c(-c3ccc(F)c(F)c3)o2)ncc1F [Compound 234] | 85
11 | CNC(=O)c1ncc2c(-c3ccccc3)nn(Cc3ccccc3)c2n1 [Compound 248] | 95
12 | Cc1ccnn1-c1nc(-n2cc3ccn(C(F)(F)F)c3nc2=O)c(-c2ccc(F)cc2)o1 [Compound 240] | 95
13 | COC(=O)Nc1ncc2c(-c3ccccc3)nn(-c3ccccc3)c2n1 [Compound 274] | 94
14 | CNC(=O)c1ncc2c(-c3ccc(F)cc3)nn(Cc3ccnc(F)c3)c2n1 [Compound 259] | 99
15 | CNC(=O)c1ncc2c(-c3ccccc3Cl)nn(-c3ccc(F)cc3)c2n1 [Compound 244] | 100
16 | CC(=O)Nc1ncc2c(-c3ccccc3)nn(Cc3cncc(F)c3)c2n1 [Compound 267] | 91
17 | CC(=O)Nc1ncc2c(-c3ccccc3)nn(CC3CCCCC3)c2n1 [Compound 280] | 90
18 | CNC(=O)c1ncc2c(-c3ccc(F)cc3)nn(Cc3cccc(F)c3)c2n1 [Compound 260] | 95
19 | CC(=O)Nc1ncc2c(-c3ccccc3C)nn(Cc3ccccc3)c2n1 [Compound 266] | 98
20 | Cc1ccn(-c2nc(-n3cc4ccn(C(F)(F)F)c4nc3=O)c(-c3ccc(F)cc3)o2)n1 [Compound 241] | 98
21 | CC(=O)Nc1ncc2c(-c3ccccc3)nn(C(C)c3ccccc3)c2n1 (stereo not drawn) [Compound 265] | 110
22 | CNC(=O)c1ncc2c(-c3ccc(F)cc3)nn(Cc3ccc(F)cc3)c2n1 [Compound 261] | 87
23 | CCc1ccccc1-c1nn(-c2ccc(F)cc2)c2nc(C(=O)NC)ncc12 [Compound 245] | 120

Results, then the compound that gave them:

Row | AD Tau Aggregates (% control) | Structure (SMILES)
24 | 96 | CNC(=O)c1ncc2c(-c3cc4c(cnn4C)cc3F)nn(Cc3ccccc3)c2n1 [Compound 253]
25 | 110 | CNC(=O)c1ncc2c(-c3ccc(F)cc3)nn(CC3CCCCC3)c2n1 [Compound 258]
26 | 120 | CNC(=O)c1ncc2c(-c3ccccc3)nn(-c3ccc(F)cc3)c2n1 [Compound 246]
27 | 100 | CCC(=O)Nc1ncc2c(-c3ccccc3)nn(Cc3ccc(OC)cc3)c2n1 [Compound 269]
28 | 92 | CC(=O)Nc1ncc2c(-c3ccccc3)nn(Cc3ccncc3)c2n1 [Compound 279]
29 | 99 | O=c1nc2c(ccn2C(F)(F)F)cn1-c1nc(N2Cc3ccccc3C2)oc1-c1ccc(F)cc1 [Compound 242]
30 | 100 | CNC(=O)c1ncc2c(-c3cccc4c3OC(F)(F)O4)nn(Cc3ccccc3)c2n1 [Compound 254]
